Source: US6214805A, “RNase L activators and antisense oligonucleotides effective to treat RSV infections” (priority 1997, dated 2001)

Legend:
RSV Long (A) = test: CPE inhibition assay in HEp-2 cells, RSV strain Long; assay type: cell-based, Respiratory syncytial virus; settings: Table 12, CPE
Experimental: (§1) The CPE inhibition assay used in this study was performed as described by Sidwell and Huffman (Sidwell et al., 1971, Appl. Microbiol. 22:7979-7801) with slight modifications. Varying concentrations of test compounds were added to each plate containing near confluent cell monolayers (1×10^5 cells/well) followed immediately by the addition of virus at a multiplicity of infection (MOI)=0.01, and then incubated at 37° C. On the following day, the medium from each plate was removed and fresh compound added. The assay was stopped at the end of the sixth day when the virus cytopathic effect in the virus infected, untreated control cells affected all cells. All compounds were assayed for virus inhibition in quadruplicate and for cytotoxicity in duplicate. For each compound, two wells were set aside as uninfected, untreated cell controls per test and four wells per test received virus only and represented controls for virus replication. […] For all CPE-based assays, the 50% effective concentration (EC50) was calculated by regression analysis using the means of the CPE ratings at each concentration of compound.
(§2) In this series, MP351 was added once a day for two days with fresh medium

RSV CH18537 (B) [1] = test: CPE inhibition assay in HEp-2 cells, RSV strain CH18537; assay type: cell-based, Respiratory syncytial virus; settings: Table 12, CPE
Experimental: as §1, §2

RSV CH18537 (B) [2] = test: Neutral red uptake assay in HEp-2 cells, RSV strain CH18537; assay type: cell-based, Respiratory syncytial virus; settings: Table 12, neutral red
Experimental: (§3) This assay was performed by a modified method as described by Cavenaugh et al. (Cavenaugh et al. 1990, Invest. New Drugs 8:347-354). Briefly, medium was removed from each well of a plate scored for CPE from a CPE inhibition assay, 0.2 ml of neutral red (0.034% in PSS) was added to each of the wells of that plate and the plate incubated for 2 hr at 37° C. in the dark. The neutral red solution was removed from the wells and the wells rinsed twice with PBS (pH 7.4). Equal volumes (0.1 ml) of absolute ethanol and Sorenson citrate buffer (0.1 M sodium citrate, 0.1 M HCI, pH 4.2) were mixed together and added to each well. Plates were incubated in the dark for 30 min. at room temperature to solubilize the dye. The plates were then gently mixed on a 96-well plate adapted vortexer for 1 min. Absorbances at 540 nm and 450 nm were read with a microplate reader (Bio-Tek EL 1309; Bio-Tek Instruments, Inc. Winooski, Vt.). Absorbance values were expressed as percents of untreated controls and EC50 and IC50 values were calculated by regression analysis.
as §2

Hep-2 Cells [3] = test: Neutral red uptake assay of cytotoxicity in HEp-2 cells; assay type: cell-based, human; settings: Homo sapiens
Experimental: Embryonic African green monkey kidney cells (MA-104) were obtained from BioWhittaker, Inc. (Walkersville, Md.). HEp-2 cells were propagated from a human epidermoid carcinoma of the larynx (American Type Culture Collection, ATCC; Rockville, Md.). The cells were grown in minimal essential medium. (MEM, Gibco-BRL, Gaitherburg, Md.) supplemented with 0.1% NaHCO3 and 10% fetal bovine serum (FBS, Hyclone Laboratories, Logan Utah.). When performing antiviral assays, serum was reduced to 2% and 50 μg/ml gentamicin (Sigma Chemical Company, St. Louis, Mo.) was added to the medium.
as §3

Hep-2 Cells [4] = test: Cytotoxicity to Hep-2 cells (visual and dye uptake, rapidly dividing cells); assay type: cell-based, human; settings: Homo sapiens
From the text: (§4) A comparison of the efficacies of spA4 -antiRSV3'3'T/(8281-8299) treatment and conventional ribarvirin treatment can be obtained by determining the RSV-inhibitory concentration and the cytotoxic concentration of each compound. Cultures of the human laryngeal carcinoma cell line HEp-2 and the […] renal cell line MA-104 were established and infected with an MOI=0.005. Cultures were fed twice daily. Treatment with either ribavirin or spA4 -antiRSV3'3'T/(8281-8299) was begun simultaneously with infection and continued for four days. Treatment was then withdrawn and the test read on day 5. The effects of treatment on RSV infection were reported as 1) an EC50, the concentration at which there was a 50% reduction in the observable cytopathic effects of infection and 2) an EC90, the concentration at which there was a 90% reduction in viral production. […] Therapeutic efficacy is estimated by the Selectivity Index, which is the ratio of IC50 /EC50.
(§5) IC50 50% inhibitory concentration for cytotoxicity to cells (visual

RSV strain A2 [5] = test: Antiviral activity in MA-104 cells, visual CPE; assay type: cell-based, Respiratory syncytial virus
From the text: as §4
(§6) as determined with RSV strain A2, MOI = 0.005
(§7) Fresh medium and oligo or ribavirin added twice daily for 4 d and test read
(§8) EC50 effective concentration to reduce RSV-induced CPE by 50%.

RSV strain A2 [6] = test: Antiviral activity in Hep-2 cells, neutral red (reduction of RSV-induced CPE); assay type: cell-based, Respiratory syncytial virus
From the text: as §4
determined with RSV strain A2, MOI = 0.005
as §7, §8

MA-104 Cells = test: Cytotoxicity to MA-104 cells (visual and dye uptake, rapidly dividing cells); assay type: cell-based, murine; settings: MA104
From the text: as §4, §5

RSV strain A2 [7] = test: Virus yield reduction assay in HEp-2 cells; assay type: cell-based, Respiratory syncytial virus; settings: human respiratory syncytial virus, compound added twice daily
Experimental: EC50 & EC90 : concentration required to reduce virus (RSV strain
Both compounds were added to the cells twice daily.

RSV strain A2 [8] = test: Virus yield reduction in MA-104 cells; assay type: cell-based, Respiratory syncytial virus; settings: human respiratory syncytial virus, MA104, 96 h, RSV yield reduced by 90%, MOI = 0.005, added twice daily for 4 d
From the text: as §4, §6, §7
EC90 effective concentration to reduce RSV yield by 90%.

[9] = human respiratory syncytial virus, 48 h, once a day for two days

Work on `NC(=O)c1ncn([C@@H]2O[C@H](CO)[C@@H](O)[C@H]2O)n1` [Ribavirin] yielded an SI (RSV Long (A)) of 17, an EC50 (RSV Long (A); [9]) of 12 µM and an SI (RSV CH18537 (B) [1]) of 52. It also gave an EC50 (RSV CH18537 (B) [1]; [9]) of 4 µM, an SI (RSV CH18537 (B) [2]) of 19 and an EC50 (RSV CH18537 (B) [2]; [9]) of 12 µM. The IC50 (Hep-2 Cells [3]; HEp-2, 0 h, Table 13, neutral red, q.d., Day 0, HEp-2) was 328 µM, the IC50 (Hep-2 Cells [3]; HEp-2, 24 h, Table 11, neutral red, q.d. 1 day (added along with virus, never replenished), HEp2) was 480 µM and the IC50 (Hep-2 Cells [3]; HEp-2, 24 h, Table 13, neutral red, q.d., Day 1, HEp-2) was 1130 µM. The IC50 (Hep-2 Cells [3]; HEp-2, 48 h, Table 11, neutral red, B.I.D. 2 days, HEp2) was 1050 µM, the IC50 (Hep-2 Cells [3]; HEp-2, 48 h, Table 13, neutral red, q.d., Day 2, HEp-2) was 320 µM and the IC50 (Hep-2 Cells [3]; HEp-2, 72 h, Table 11, neutral red, B.I.D. 3 days, HEp2) was 700 µM. The IC50 (Hep-2 Cells [3]; HEp-2, 72 h, Table 11, neutral red, q.d. 3 days, HEp2) was 1010 µM, the IC50 (Hep-2 Cells [3]; HEp-2, 96 h, Table 11, neutral red, B.I.D. 4 days, HEp2) was 600 µM and the IC50 (Hep-2 Cells [3]; HEp-2, 96 h, Table 11, neutral red, q.d. 4 days, HEp2) was 730 µM. The IC50 (Hep-2 Cells [3]; HEp-2, Table 12, neutral red, test with 393 (clinical isolate), HEp-2) was 96 µM, the IC50 (Hep-2 Cells [3]; HEp-2, Table 12, neutral red, test with CH18537 (B), HEp-2) was 233 µM and the IC50 (Hep-2 Cells [3]; HEp-2, Table 12, neutral red, test with Long (A), HEp-2) was 280 µM. The IC50 (Hep-2 Cells [4]) was 41 µM, the “SI selectivity index = IC50/EC50” value (RSV strain A2 [5]) was 210 and the EC50 (RSV strain A2 [5]; human respiratory syncytial virus, MA104, 96 h, visual CPE, MOI = 0.005, added twice daily for 4 d, read on d 5) was 1 µM. For the same compound, the “SI selectivity index = IC50/EC50” value (RSV strain A2 [5]; listed as ribavirin) was “about 200”, the “SI selectivity index = IC50/EC50” value (RSV strain A2 [6]) was 10 and the EC50 (RSV strain A2 [6]; human respiratory syncytial virus, 96 h, neutral red, MOI = 0.005, added twice daily for 4 d, read on d 5) was 4 µM. It also gave an IC50 (MA-104 Cells) of 210 µM, an EC50 (RSV strain A2 [7]; virus yield reduced by 50%) of 40 µM and an EC90 (RSV strain A2 [7]; virus yield reduced by 90%) of 80 µM. The EC90 (RSV strain A2 [8]) was 7 µM.
